Results published in patent US9156811B2 (priority 2008, dated 2015).
Where two headings read alike, the source gives them in different places.

What was measured:
[1] = target: T. brucei N-myristoyl transferase (Trypanosoma brucei brucei (strain 927/4 GUTat10.1), UniProt Q388H8); test: biochemical; format: biochemical; settings: read-out: IC50 (μM) NMT Enzyme
[2] = system: Trypanosome (T. brucei brucei); test: In-vitro antitrypanosomal efficacy assay (cell growth, resazurin); format: cell-based; settings: T. brucei cell growth
Method: To column 12, 200 μl media was added to provide a no cells control. Plates were then incubated at 37° C. in an atmosphere of 5% CO2 for 69 hours, before the addition of 20 μl of 500 μM rezasurin solution, and a further incubation period of 4 hours. […] Concentration effect curves were fitted using non-linear regression using XLFit 4.2 and EC50 values determined.

[3] = value printed without enzyme tag in the NMT Enzyme column (taken as T. brucei NMT)
[4] = value with no enzyme tag in the cell, taken as T. brucei NMT

T. brucei N-myristoyl transferase, sequence (Q388H8 1-446): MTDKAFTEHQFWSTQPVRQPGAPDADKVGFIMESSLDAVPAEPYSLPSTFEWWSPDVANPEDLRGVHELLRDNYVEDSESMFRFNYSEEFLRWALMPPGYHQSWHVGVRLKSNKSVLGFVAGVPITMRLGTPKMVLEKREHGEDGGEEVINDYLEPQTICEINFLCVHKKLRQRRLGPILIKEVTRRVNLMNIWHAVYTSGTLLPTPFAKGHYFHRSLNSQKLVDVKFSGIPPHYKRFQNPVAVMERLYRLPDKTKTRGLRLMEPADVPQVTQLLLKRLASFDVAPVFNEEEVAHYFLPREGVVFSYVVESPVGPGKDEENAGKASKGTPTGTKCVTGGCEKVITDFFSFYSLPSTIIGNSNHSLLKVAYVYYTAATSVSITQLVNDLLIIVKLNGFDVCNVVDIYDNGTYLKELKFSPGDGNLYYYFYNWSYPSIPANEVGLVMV

## COc1cc(C)c([S+](=O)([O-])n2ccc(N)n2)c(C)c1C [DDD71644]
[1]; [3]
  IC50: > 100 µM
[2]
  ED50 (μM) T. brucei: >1 µM

## COc1cc(C)c([S+](=O)([O-])Nc2c(C)noc2C)c(C)c1C [DDD71285]
[1]; [3]
  IC50: 19.3 µM
[2]
  ED50 (μM) T. brucei: >1 µM

## COc1ccc(SCc2ccc([S+](=O)([O-])Nc3c(C)nn(C)c3C)cc2)cc1OC [DDD85604]
[1]; [3]
  IC50: 3.3 µM
[2]
  ED50 (μM) T. brucei: >1 µM

## Cc1nn(C)c(C)c1N[S+](=O)([O-])c1ccc(N2CCC(c3ccccc3)CC2)nc1 [DDD73481]
[1]; [3]
  IC50: 6.9 µM
[2]
  ED50 (μM) T. brucei: >1 µM

## Cc1cc(C(C)(C)C)cc(C)c1[S+](=O)([O-])Nc1c(C)nn(C)c1C [DDD71243]
[1]; [3]
  IC50: 0.5 µM
[2]
  ED50 (μM) T. brucei: 5.8 µM

## Cc1nn(C)c(C)c1N(CC1CC1)[S+](=O)([O-])c1c(Cl)cc(Br)cc1Cl [DDD85625]
[1]; [3]
  IC50: 0.67 µM
[2]
  ED50 (μM) T. brucei: 4.6 µM

## CCCn1ncc(N[S+](=O)([O-])c2c(C)cc(OC)c(C)c2C)n1 [DDD73266]
[1]; [3]
  IC50: > 100 µM
[2]
  ED50 (μM) T. brucei: >1 µM

## Cc1nn(C)c(C)c1N[S+](=O)([O-])c1ccc([S+](=O)([O-])N2CCCC2)cc1 [DDD71607]
[1]; [3]
  IC50: > 100 µM
[2]
  ED50 (μM) T. brucei: >1 µM

## Cc1nn(C)c(C)c1N[S+](=O)([O-])c1ccc(COc2ccc3cc[nH]c3c2)cc1 [DDD73507]
[1]; [3]
  IC50: 4.5 µM
[2]
  ED50 (μM) T. brucei: >1 µM

## Cc1nn(C)c(C)c1N[S+](=O)([O-])c1ccc(N(C)Cc2ccc(CN(C)C)cc2)nc1 [DDD85624]
[1]; [3]
  IC50: 0.36 µM
[2]
  ED50 (μM) T. brucei: 1.5 µM

## Cc1nn(C)c(C)c1N[S+](=O)([O-])c1ccc(CCCN2CCN(C)CC2)cc1Cl [DDD90058]
[1]; [4]
  IC50: 0.027 µM
[2]
  ED50 (μM) T. brucei: 0.20 µM

## COc1cc([S+](=O)([O-])Nc2c(C)nn(C)c2C)ccc1NC(C)=O [DDD71623]
[1]; [3]
  IC50: 42 µM
[2]
  ED50 (μM) T. brucei: >1 µM

## Cc1nn(C)c(C)c1N[S+](=O)([O-])c1ccc(COCCN2CCN(C)CC2)cc1 [DDD85649]
[1]; [4]
  IC50: 40 µM
[2]
  ED50 (μM) T. brucei: >1 µM

## Cc1nn(C)c(C)c1N[S+](=O)([O-])c1ccc(N2CCN(c3ccc(F)cc3)CC2)nc1 [DDD73230]
[1]; [3]
  IC50: 10.7 µM
[2]
  ED50 (μM) T. brucei: >1 µM

## Cc1nn(C)c(C)c1N[S+](=O)([O-])c1ccc(NC2CCc3ccccc32)nc1 (stereo not drawn) [DDD85613]
[1]; [3]
  IC50: 6.6 µM
[2]
  ED50 (μM) T. brucei: >1 µM

## Cc1nn(C)c(C)c1N[S+](=O)([O-])c1ccc(NCc2ccc3c(c2)OCO3)nc1 [DDD73326]
[1]; [3]
  IC50: 1.4 µM
[2]
  ED50 (μM) T. brucei: >1 µM

## COc1ccc([S+](=O)([O-])Nc2c(C)nn(C)c2C)cc1Br [DDD71233]
[1]; [3]
  IC50: 2.6 µM
[2]
  ED50 (μM) T. brucei: >1 µM

## CCN(CC)Cc1cccc(-c2ccc([S+](=O)([O-])Nc3c(CC(C)C)nn(C)c3C)c(Cl)c2)c1 [DDD99763]
[1]; [4]
  IC50: 0.007 µM
[2]
  ED50 (μM) T. brucei: 0.053 µM

## Cc1nn(C)c(C)c1N(CCc1ccccc1)[S+](=O)([O-])c1c(Cl)cc(Br)cc1Cl [DDD85606]
[1]; [3]
  IC50: 4.9 µM
[2]
  ED50 (μM) T. brucei: 3.6 µM

## Cc1nn(C)c(C)c1N[S+](=O)([O-])c1ccc(NCCc2ccc3ccccc3c2)nc1 [DDD73489]
[1]; [3]
  IC50: 12.4 µM
[2]
  ED50 (μM) T. brucei: >1 µM

## Cc1nn(C)c(C)c1N(C)[S+](=O)([O-])c1ccc(N2CCc3c(N)cccc3C2)nc1 [DDD85605]
[1]; [3]
  IC50: 0.57 µM
[2]
  ED50 (μM) T. brucei: 2.4 µM

## Cc1nn(C)c(C)c1N[S+](=O)([O-])c1ccc2c(c1)CCC2 [DDD71253]
[1]; [3]
  IC50: 5.6 µM
[2]
  ED50 (μM) T. brucei: >1 µM

## Cc1nn(C)c(C)c1N(CCCO)[S+](=O)([O-])c1ccc(-c2ccnc(N3CCNCC3)c2)cc1 [DDD87755, N-(3-Hydroxy-propyl)-4-(2-piperazin-1-yl-pyridin-4-yl)-N-(1,3,5-trimethyl-1H-pyrazol-4-yl)-benzenesulfonamide]
[1]; [4]
  IC50: 0.05 µM
[2]
  ED50 (μM) T. brucei: 0.98 µM

## Cc1nn(C)c(C)c1N[S+](=O)([O-])c1ccc(CNc2noc(C)c2C)cc1 [DDD73510]
[1]; [3]
  IC50: 26.9 µM
[2]
  ED50 (μM) T. brucei: >1 µM

## CC(=O)c1ccc([S+](=O)([O-])Nc2c(C)nn(C)c2C)cc1 [DDD71232]
[1]; [3]
  IC50: 42 µM
[2]
  ED50 (μM) T. brucei: >1 µM

## Cc1nn(C)c(C)c1N[S+](=O)([O-])c1ccc(NCCN2CCOCC2)nc1 [DDD73239]
[1]; [3]
  IC50: 38.7 µM
[2]
  ED50 (μM) T. brucei: >50 µM

## Cc1nn(C)c(C)c1N[S+](=O)([O-])c1ccc(NCc2ccc(-n3ccnc3C)cc2)nc1 [DDD73494]
[1]; [3]
  IC50: 0.71 µM
[2]
  ED50 (μM) T. brucei: 8.8 µM
